Experimental data taken from patent US8691184B2, “Bcl-2/Bcl-xL inhibitors and therapeutic methods using the same” (The Regents of the University of Michigan, priority 2011, dated 2014).
Several values for one entry are separate records, joined by “and”; a condition that tells them apart may be missing. Equal values may be shown once. Read-outs that look alike come from different tables or passages of the source.

Columns and labels:
Mcl-1 = Mcl-1 (Homo sapiens, UniProt Q07820); assay: FP-based binding assay, Mcl-1; settings: for IC50: Table 4, FP-based assay, read-out: Binding Affinities Mcl-1 IC50 ± SD
Mcl-1, sequence (Q07820 whole entry, species assumed): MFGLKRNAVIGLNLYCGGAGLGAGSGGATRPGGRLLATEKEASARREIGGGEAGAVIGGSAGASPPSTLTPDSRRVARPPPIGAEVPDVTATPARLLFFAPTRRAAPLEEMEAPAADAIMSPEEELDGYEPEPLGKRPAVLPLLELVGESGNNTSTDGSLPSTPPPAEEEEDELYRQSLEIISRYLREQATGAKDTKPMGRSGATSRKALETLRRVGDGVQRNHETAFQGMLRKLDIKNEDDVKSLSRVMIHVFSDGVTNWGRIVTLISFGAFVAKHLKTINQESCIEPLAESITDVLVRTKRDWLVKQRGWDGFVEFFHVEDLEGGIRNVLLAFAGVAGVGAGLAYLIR

Bcl-xL = Bcl-xL (Homo sapiens, UniProt Q07817); assay: FP-based binding assay, Bcl-xL; settings: for Ki: Binding Affinities Bcl-xL Ki ± SD (nM), Table 4, * Ki is an estimate, compound more potent than the tracer
Bcl-xL, sequence (Q07817 whole entry): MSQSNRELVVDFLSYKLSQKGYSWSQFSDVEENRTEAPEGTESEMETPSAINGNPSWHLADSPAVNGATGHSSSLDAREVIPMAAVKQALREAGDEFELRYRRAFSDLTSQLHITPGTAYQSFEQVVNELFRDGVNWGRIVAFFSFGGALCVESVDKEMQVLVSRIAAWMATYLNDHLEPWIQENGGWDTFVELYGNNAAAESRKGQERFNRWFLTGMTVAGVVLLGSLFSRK

H146 cells = assay: Cell growth assay (WST-8), H146; type: cell-based; settings: Homo sapiens, NCI-H146, 96 h; Table 4, 4 days; read-out: Cell Growth Inhibition (IC50 ± SD, nM) H146
Method: (§1) RS4;11 and H146 cells were seeded in 96-well cell culture plates at a density of 10,000 cells/well with serially diluted compounds and incubated at 37° C. in an atmosphere of 95% air and 5% CO2 for 4 days. Cell viability was determined using the WST-8 (2-(2-methoxy-4-nitrophenyl)-3-(4-nitrophenyl)-5-(2,4-disulfophenyl)-2H-tetrazolium, monosodium salt) based Cell Counting-8 Kit (Dojindo Molecular Technologies, Inc., Rockville, Md.) according to the manufacture's instruction. Briefly, WST-8 was added to each well at a final concentration of 10% (v/v), and then the plates were incubated at 37° C. for 1˜2 hours for color development. The absorbance was measured at 450 nm using a SPECTRAmax PLUS plate reader (Molecular Devices, Sunnyvale, Calif.). The half maximal inhibitory concentration (IC50) was calculated using the GraphPad Prism 5 software (GraphPad Software, La Jolla, Calif.).

Bcl-2 = Bcl-2 (Homo sapiens, UniProt P10415); assay: FP-based binding assay, Bcl-2
Bcl-2, sequence (P10415 whole entry): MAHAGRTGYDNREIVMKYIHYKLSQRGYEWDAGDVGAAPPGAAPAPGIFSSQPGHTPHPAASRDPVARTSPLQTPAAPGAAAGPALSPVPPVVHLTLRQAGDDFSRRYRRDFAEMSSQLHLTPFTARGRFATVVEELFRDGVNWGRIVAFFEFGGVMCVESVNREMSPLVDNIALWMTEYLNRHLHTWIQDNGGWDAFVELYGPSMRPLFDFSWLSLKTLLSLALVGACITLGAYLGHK

[1] = system: ML-2 acute myeloid leukemia (AML) cell line; assay: Cell growth assay (WST-8), ML-2; type: cell-based; settings: Table 4; read-out: Cell Growth Inhibition (IC50 ± SD, nM) ML-2
RS4;11 cells = assay: Cell growth assay (WST-8), RS4;11; type: cell-based; settings: Homo sapiens, RS4-11, 96 h; Table 4, 4 days; read-out: Cell Growth Inhibition (IC50 ± SD, nM) RS4;11
Method: as §1

[2] = Toxicity (maximum tolerated dose) in SCID mice; type: in vivo
From the text: These experiments established the maximum tolerated doses (MTD).

[3] = read-out: Binding Affinities Bcl-xL IC50 ± SD, Table 4, FP-based assay

Cc1cc(-c2cccc(N3CCN(c4ccc(NS(=O)(=O)c5ccc(N[C@H](CCN(C)C)CSc6ccccc6)c([N+](=O)[O-])c5)cc4)CC3)c2)c(-c2ccc(Cl)cc2)n1C [Compound 168, (R)—N-(4-(4-(3-(2-(4-chlorophenyl)-1,5-dimethyl-1H-pyrrol-3-yl)phenyl)piperazin-1-yl)phenyl)-4-((4-(dimethylamino)-1-(phenylthio)butan-2-yl)amino)-3-nitrobenzenesulfonamide]
IC50 (Mcl-1): > 5000 nM | IC50 (Bcl-xL): 3 ± 0.4 nM | Ki (Bcl-xL): 3 nM and < 1 nM

CNC(=O)c1c(-c2cccc(N3CCN(c4ccc(NS(=O)(=O)c5ccc(N[C@H](CCN6CCOCC6)CSc6ccccc6)c([N+](=O)[O-])c5)cc4)CC3)c2)c(-c2ccc(Cl)cc2)n(C)c1C [Compound 124]
IC50 (H146 cells): 178 ± 65 nM | IC50 (Bcl-2): 14 ± 2 nM | Ki (Bcl-2): 3 ± 0.6 nM | IC50 (Mcl-1): > 10000 nM | IC50 [1]: 382 ± 138 nM | IC50 (Bcl-xL): 5 ± 1 nM | Ki (Bcl-xL): 1 ± 0.2 nM | IC50 (RS4;11 cells): 89 ± 30 nM

Cc1c(C(=O)O)c(-c2cccc(N3CCN(c4ccc(NS(=O)(=O)c5ccc(N[C@H](CCN(C)C)CSc6ccccc6)c(S(=O)(=O)C(F)(F)F)c5)cc4)CC3)c2)c(-c2ccc(Cl)cc2)n1C [Compound 185, (R)-5-(4-chlorophenyl)-4-(3-(4-(4-(4-((4-(dimethylamino)-1-(phenylthio)butan-2-yl)amino)-3-((trifluoromethyl)sulfonyl)phenylsulfonamido)phenyl)piperazin-1-yl)phenyl)-1,2-dimethyl-1H-pyrrole-3-carboxylic acid]
IC50 (H146 cells): 177 ± 73 nM | IC50 (Bcl-2): 2.2 ± 1.6 nM | Ki (Bcl-2): < 1 nM | IC50 (Mcl-1): > 10000 nM | IC50 [1]: 550 ± 204 nM | IC50 (Bcl-xL): 5 ± 4 nM | Ki (Bcl-xL): 1.3 ± 1 nM | IC50 (RS4;11 cells): 81 ± 7 nM

Cc1c(C(=O)O)c(-c2cccc(N3CCN(c4ccc(NS(=O)(=O)c5ccc(N[C@H](CCN6CCOCC6)CSc6ccccc6)c([N+](=O)[O-])c5)cc4)CC3)c2)c(-c2ccc(Cl)cc2)n1C [Compound 187, (R)-5-(4-chlorophenyl)-1,2-dimethyl-4-(3-(4-(4-(4-((4-morpholino-1-(phenylthio)butan-2-yl)amino)-3-nitrophenylsulfonamido)phenyl)piperazin-1-yl)phenyl)-1H-pyrrole-3-carboxylic acid]
IC50 (H146 cells): 181 ± 61 nM | IC50 (Bcl-2): 2 ± 1 nM | Ki (Bcl-2): < 1 nM | IC50 (Mcl-1): > 10000 nM | IC50 [1]: 225 ± 49 nM | IC50 (Bcl-xL): 5 ± 2 nM | Ki (Bcl-xL): 1.3 ± 0.6 nM | IC50 (RS4;11 cells): 99 ± 28 nM

CN(C)CC[C@@H](CSc1ccccc1)Nc1ccc(S(=O)(=O)Nc2ccc(N3CCN(c4cccc(-c5ccnn5-c5ccc(Cl)cc5)c4)CC3)cc2)cc1[N+](=O)[O-] [Compound 130]
Weight loss or other signs of toxicity ([2]; female SCID mice, intravenously, daily, 5-times a week for 2 weeks, 25 mg/kg): no or minimal weight loss or other signs of toxicity

Cc1c(C(=O)O)c(-c2cccc(N3CCN(c4ccc(NS(=O)(=O)c5ccc(N[C@H](CCN(C)C)CSc6ccccc6)c([N+](=O)[O-])c5)cc4)CC3)c2)c(-c2ccc(Cl)cc2)n1C [Compound 178, (R)-5-(4-chlorophenyl)-4-(3-(4-(4-(4-((4-(dimethylamino)-1-(phenylthio)butan-2-yl)amino)-3-nitrophenylsulfonamido)phenyl)piperazin-1-yl)phenyl)-1,2-dimethyl-1H-pyrrole-3-carboxylic acid]
IC50 (H146 cells): 87 ± 60 nM | IC50 (Bcl-2): 1 ± 0.1 nM | Ki (Bcl-2): < 1 nM | IC50 (Mcl-1): > 10000 nM | IC50 [1]: 124 ± 62 nM | Ki (Bcl-xL): 1.6 ± 1 nM | IC50 (Bcl-xL; [3]): 6 ± 4 nM | IC50 (RS4;11 cells): 26 ± 4 nM

Cc1c(C(=O)O)c(-c2cccc(N3CCN(c4ccc(NS(=O)(=O)c5ccc(N[C@H](CCN6CCOCC6)CSc6ccccc6)c(S(=O)(=O)C(F)(F)F)c5)cc4)CC3)c2)c(-c2ccc(Cl)cc2)n1C [Compound 186, (R)-5-(4-chlorophenyl)-1,2-dimethyl-4-(3-(4-(4-(4-((4-morpholino-1-(phenylthio)butan-2-yl)amino)-3-((trifluoromethyl)sulfonyl)phenylsulfonamido)phenyl)piperazin-1-yl)phenyl)-1H-pyrrole-3-carboxylic acid]
IC50 (H146 cells): 430 ± 207 nM | IC50 (Bcl-2): 14 ± 3 nM | Ki (Bcl-2): 3.4 ± 0.6 nM | IC50 (Mcl-1): > 10000 nM | IC50 [1]: 1090 ± 562 nM | IC50 (Bcl-xL): 6 ± 3 nM | Ki (Bcl-xL): 1.6 ± 0.8 nM | IC50 (RS4;11 cells): 493 ± 64 nM

Cc1c(C(=O)NS(C)(=O)=O)c(-c2cccc(N3CCN(c4ccc(NS(=O)(=O)c5ccc(N[C@H](CCN(C)C)CSc6ccccc6)c([N+](=O)[O-])c5)cc4)CC3)c2)c(-c2ccc(Cl)cc2)n1C [Compound 133]
IC50 (H146 cells): 38 ± 22 nM | IC50 (Bcl-2): 1 ± 0.2 nM | Ki (Bcl-2): < 1 nM | Weight loss at higher dose ([2]; SCID mice, 50 mg/kg): caused weight loss | IC50 (Mcl-1): > 10000 nM | IC50 [1]: 160 ± 53 nM | Ki (Bcl-xL): 1.3 ± 0.3 nM | IC50 (Bcl-xL; [3]): 5 ± 1 nM | IC50 (RS4;11 cells): 87 ± 19 nM

CNC(=O)c1c(-c2cccc(N3CCN(c4ccc(NS(=O)(=O)c5ccc(N[C@H](CCN(C)C)CSc6ccccc6)c([N+](=O)[O-])c5)cc4)CC3)c2)c(-c2ccc(Cl)cc2)n(C)c1C [Compound 125]
IC50 (H146 cells): 36 ± 26 nM | IC50 (Bcl-2; read-out: Binding Affinities Bcl-2 IC50 ± SD, Table 4, FP-based assay): 5 ± 1 nM | Ki (Bcl-2; read-out: Binding Affinities Bcl-2 Ki ± SD, Table 4, * Ki is an estimate, compound more potent than the tracer): 1.1 ± 0.2 nM | IC50 (Mcl-1): > 10000 nM | IC50 [1]: 215 ± 52 nM | Ki (Bcl-xL): 1.6 ± 0.8 nM | IC50 (Bcl-xL; [3]): 6 ± 3 nM | IC50 (RS4;11 cells): 74 ± 44 nM

Flu-BID: "Homemade fluorescein labeled" "BID (79-99)" peptide, fluorescent probe "in FP assays for" Mcl-1 [reference compound]
Kd (Mcl-1; saturation FP, 2 nM probe, increasing protein, read-out: Kd of fluorescent probe to Mcl-1): 6.8 ± 1.5 nM
